In ChEMBL document CHEMBL1124526, “Synthesis and biological evaluation of certain 3-beta-D-ribofuranosyl-1,2,4-triazolo[4,3-b)pyridazines related to formycin prepared via ring closure of pyridazine precursors” (J Med Chem, 1989):
Activity calls are given as the source filed them.

Tests used:
CCRF-CEM = assay: In vitro ability to inhibit the growth of CCRF-CEM human T-lymphoblastic leukemia; Compound was inactive at 100 uM and 1000 uM respectively.; type: functional, cell-based
Human alphaherpesvirus 2 = assay: In vitro antiviral activity against herpes simplex virus type 2 (MS); Compound was inactive at 100 uM and 1000 uM respectively.; type: functional, organism-based
Influenza A virus = assay: In vitro antiviral activity against influenza A virus (chile); Compound was inactive at 100 uM and 1000 uM respectively.; type: functional, organism-based
L1210 = assay: In vitro ability to inhibit the growth of L1210 murine lymphocytic leukemia; Compound was inactive at 100 uM and 1000 uM respectively.; type: functional, cell-based; details: Mus musculus
Human respirovirus 3 = assay: In vitro antiviral activity against parainfluenza virus type 3 (C243); Compound was inactive at 100 uM and 1000 uM respectively.; type: functional, organism-based
Human rhinovirus 1A = assay: In vitro antiviral activity against rhino virus type 1-A (2060); Compound was inactive at 100 uM and 1000 uM respectively.; type: functional, organism-based
Semliki Forest virus = assay: In vitro antiviral activity against semliki forest virus (original); Compound was inactive at 100 uM and 1000 uM respectively.; type: functional, organism-based
Visna-maedi virus = assay: In vitro antiviral activity against vinsa virus (1513); Compound was inactive at 100 uM and 1000 uM respectively.; type: functional, organism-based
Homo sapiens = species on record: Homo sapiens; assay: In vitro ability to inhibit the growth of WI-L2 human B-lymphoblastic leukemia; Compound was inactive at 100 uM and 1000 uM respectively.; type: functional
Human adenovirus 2 = assay: In vitro antiviral activity against adeno virus type 2; Compound was inactive at 100 uM and 1000 uM respectively.; type: functional, organism-based

Measured: Activity

Nc1ccc2nnc([C@@H]3O[C@H](CO)[C@@H](O)[C@H]3O)n2n1
inactive: CCRF-CEM inactive at 100 uM and 1000 uM respectively | Human alphaherpesvirus 2 inactive at 100 uM and 1000 uM respectively | Influenza A virus inactive at 100 uM and 1000 uM respectively | L1210 inactive at 100 uM and 1000 uM respectively | Human respirovirus 3 inactive at 100 uM and 1000 uM respectively | Human rhinovirus 1A inactive at 100 uM and 1000 uM respectively | Semliki Forest virus inactive at 100 uM and 1000 uM respectively | Visna-maedi virus inactive at 100 uM and 1000 uM respectively | Homo sapiens inactive at 100 uM and 1000 uM respectively | Human adenovirus 2 inactive at 100 uM and 1000 uM respectively

Nc1cnn2c([C@@H]3O[C@H](CO)[C@@H](O)[C@H]3O)nnc2c1
inactive: CCRF-CEM inactive at 100 uM and 1000 uM respectively | Human alphaherpesvirus 2 inactive at 100 uM and 1000 uM respectively | Influenza A virus inactive at 100 uM and 1000 uM respectively | L1210 inactive at 100 uM and 1000 uM respectively | Human respirovirus 3 inactive at 100 uM and 1000 uM respectively | Human rhinovirus 1A inactive at 100 uM and 1000 uM respectively | Semliki Forest virus inactive at 100 uM and 1000 uM respectively | Visna-maedi virus inactive at 100 uM and 1000 uM respectively | Homo sapiens inactive at 100 uM and 1000 uM respectively | Human adenovirus 2 inactive at 100 uM and 1000 uM respectively

Nc1ccnn2c([C@@H]3O[C@H](CO)[C@@H](O)[C@H]3O)nnc12
inactive: CCRF-CEM inactive at 100 uM and 1000 uM respectively | Human alphaherpesvirus 2 inactive at 100 uM and 1000 uM respectively | Influenza A virus inactive at 100 uM and 1000 uM respectively | L1210 inactive at 100 uM and 1000 uM respectively | Human respirovirus 3 inactive at 100 uM and 1000 uM respectively | Human rhinovirus 1A inactive at 100 uM and 1000 uM respectively | Semliki Forest virus inactive at 100 uM and 1000 uM respectively | Visna-maedi virus inactive at 100 uM and 1000 uM respectively | Homo sapiens inactive at 100 uM and 1000 uM respectively | Human adenovirus 2 inactive at 100 uM and 1000 uM respectively

O=c1ccc2nnc([C@@H]3O[C@H](CO)[C@@H](O)[C@H]3O)n2[nH]1
inactive: CCRF-CEM inactive at 100 uM and 1000 uM respectively | Human alphaherpesvirus 2 inactive at 100 uM and 1000 uM respectively | Influenza A virus inactive at 100 uM and 1000 uM respectively | L1210 inactive at 100 uM and 1000 uM respectively | Human respirovirus 3 inactive at 100 uM and 1000 uM respectively | Human rhinovirus 1A inactive at 100 uM and 1000 uM respectively | Semliki Forest virus inactive at 100 uM and 1000 uM respectively | Visna-maedi virus inactive at 100 uM and 1000 uM respectively | Homo sapiens inactive at 100 uM and 1000 uM respectively | Human adenovirus 2 inactive at 100 uM and 1000 uM respectively

Nc1cnn2c([C@@H]3O[C@H](CO)[C@@H](O)[C@H]3O)nnc2c1Cl
inactive: CCRF-CEM inactive at 100 uM and 1000 uM respectively | Human alphaherpesvirus 2 inactive at 100 uM and 1000 uM respectively | Influenza A virus inactive at 100 uM and 1000 uM respectively | L1210 inactive at 100 uM and 1000 uM respectively | Human respirovirus 3 inactive at 100 uM and 1000 uM respectively | Human rhinovirus 1A inactive at 100 uM and 1000 uM respectively | Semliki Forest virus inactive at 100 uM and 1000 uM respectively | Visna-maedi virus inactive at 100 uM and 1000 uM respectively | Homo sapiens inactive at 100 uM and 1000 uM respectively | Human adenovirus 2 inactive at 100 uM and 1000 uM respectively

COc1ccc2nnc([C@@H]3O[C@H](CO)[C@@H](O)[C@H]3O)n2n1
inactive: CCRF-CEM inactive at 100 uM and 1000 uM respectively | Human alphaherpesvirus 2 inactive at 100 uM and 1000 uM respectively | Influenza A virus inactive at 100 uM and 1000 uM respectively | L1210 inactive at 100 uM and 1000 uM respectively | Human respirovirus 3 inactive at 100 uM and 1000 uM respectively | Human rhinovirus 1A inactive at 100 uM and 1000 uM respectively | Semliki Forest virus inactive at 100 uM and 1000 uM respectively | Visna-maedi virus inactive at 100 uM and 1000 uM respectively | Homo sapiens inactive at 100 uM and 1000 uM respectively | Human adenovirus 2 inactive at 100 uM and 1000 uM respectively

Nc1c(Cl)cnn2c([C@@H]3O[C@H](CO)[C@@H](O)[C@H]3O)nnc12
inactive: CCRF-CEM inactive at 100 uM and 1000 uM respectively | Human alphaherpesvirus 2 inactive at 100 uM and 1000 uM respectively | Influenza A virus inactive at 100 uM and 1000 uM respectively | L1210 inactive at 100 uM and 1000 uM respectively | Human respirovirus 3 inactive at 100 uM and 1000 uM respectively | Human rhinovirus 1A inactive at 100 uM and 1000 uM respectively | Semliki Forest virus inactive at 100 uM and 1000 uM respectively | Visna-maedi virus inactive at 100 uM and 1000 uM respectively | Homo sapiens inactive at 100 uM and 1000 uM respectively | Human adenovirus 2 inactive at 100 uM and 1000 uM respectively
